Results: ChEMBL document CHEMBL5096227, “Discovery of Ervogastat (PF-06865571): A Potent and Selective Inhibitor of Diacylglycerol Acyltransferase 2 for the Treatment of Non-alcoholic Steatohepatitis” (J Med Chem, 2022)

What was measured:
[1] = In vivo inhibition of DGAT2 in high fat/high cholesterol diet fed Sprague-Dawley rat model assessed as reduction in hepatic triglyceride level at 90 mg/kg, po administered twice daily for 7 days starting from day 14 post diet and measured 2 hrs post last dose relative to control; assay type: functional; design: scale not given: the % may be the effect or the level left; details: time 7 day
[2] = Half life in cynomolgus monkey at 5 mg/kg, po; assay type: ADME, organism-based, Macaca fascicularis; details: in vivo
[3] = In vivo inhibition of DGAT2 in high fat/high cholesterol diet fed Sprague-Dawley rat model assessed as reduction in plasma triglyceride level at 90 mg/kg, po administered twice daily for 7 days starting from day 14 post diet and measured 2 hrs post last dose relative to control; assay type: functional; design: scale not given: the % may be the effect or the level left; details: time 7 day
[4] = Inhibition of [14C]-glycerol incorporation into triglycerides in monkey primary hepatocytes; assay type: functional, cell-based, Macaca mulatta; details: hepatocyte
[5] = Drug metabolism in cryopreserved human hepatocytes assessed as O-dearylation mediated oxidative metabolite formation at 10 uM measured for 240 mins by HPLC-UV-MS analysis; assay type: ADME, cell-based, Hepatocyte; details: 4 h
[6] = Plasma clearance in cynomolgus monkey at 1 mg/kg, iv; assay type: ADME, organism-based, Macaca fascicularis
[7] = Drug metabolism in cryopreserved human hepatocytes assessed as hydrolytic cleavage of amide bond mediated metabolite formation at 10 uM measured for 240 mins by HPLC-UV-MS analysis; assay type: ADME, cell-based, Hepatocyte; details: 4 h
Cytochrome P450 2C8 = target: T1, Cytochrome P450 2C8 (Homo sapiens, UniProt P10632); assay: Reversible inhibition of CYP2C8 in pooled human liver microsomes using desethylamodiaquine as substrate incubated for 10 mins in presence of NADPH by HPLC-MS/MS analysis; assay type: ADME, Microsome
T1 sequence (P10632 whole entry): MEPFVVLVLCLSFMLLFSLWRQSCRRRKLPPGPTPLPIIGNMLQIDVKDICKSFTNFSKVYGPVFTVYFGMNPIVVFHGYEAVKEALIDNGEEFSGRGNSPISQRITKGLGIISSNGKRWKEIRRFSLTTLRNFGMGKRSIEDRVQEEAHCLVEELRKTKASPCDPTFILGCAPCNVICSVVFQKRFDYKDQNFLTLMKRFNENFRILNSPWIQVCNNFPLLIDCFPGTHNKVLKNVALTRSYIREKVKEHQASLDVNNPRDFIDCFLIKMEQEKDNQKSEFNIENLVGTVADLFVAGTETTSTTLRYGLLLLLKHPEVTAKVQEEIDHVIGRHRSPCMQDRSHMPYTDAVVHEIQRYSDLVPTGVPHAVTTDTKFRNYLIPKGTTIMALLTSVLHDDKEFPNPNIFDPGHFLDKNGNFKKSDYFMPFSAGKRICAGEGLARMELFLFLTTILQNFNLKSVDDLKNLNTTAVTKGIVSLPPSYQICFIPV

Rattus norvegicus = assay: In vivo inhibition of DGAT2 in sucrose diet fed Sprague-Dawley rat assessed as reduction in triglyceride level administered as single oral dose and measured after 2 hrs; assay type: functional, organism-based; details: dose 0.3-90 mg/kg, DDE = dose-dependent effect
[8] = Apparent permeability in MDCK-II cells; assay type: ADME, cell-based, Canis lupus familiaris; details: dog, MDCK; read-out: Papp
[9] = Drug metabolism in rat hepatocytes assessed as oxidation of THF ring mediated metabolite formation; assay type: ADME, cell-based, Hepatocyte
[10] = Half life in Wistar Han rat at 5 mg/kg, po; assay type: ADME, organism-based; details: in vivo
[11] = Apparent intrinsic clearance in cryopreserved human hepatocytes measured per million cells at 1 uM incubated for 4 hrs by LC-MS/MS analysis; assay type: ADME, cell-based, Hepatocyte; details: cryopreserved human hepatocytes, read-out: CLH
[12] = Toxicity in non-human primates assessed as development-limiting toxicity
[13] = Drug metabolism in cryopreserved human hepatocytes assessed as oxidation of THF ring mediated metabolite formation at 10 uM measured for 240 mins by HPLC-UV-MS analysis; assay type: ADME, cell-based, Hepatocyte; details: 4 h
[14] = Oral bioavailability in Wistar Han rat at 5 mg/kg; assay type: ADME, organism-based; details: in vivo
Cytochrome P450 2D6 = Cytochrome P450 2D6 (Homo sapiens, UniProt P10635); assay: Reversible inhibition of CYP2D6 in pooled human liver microsomes using dextrorphan as substrate incubated for 14 mins in presence of NADPH by HPLC-MS/MS analysis; assay type: ADME, Microsome
[15] = Half life in human; assay type: ADME
[16] = Drug metabolism in monkey hepatocytes assessed as O-deethylation mediated pyridin-3-ol mediated metabolite formation; assay type: ADME, cell-based, Macaca mulatta, Hepatocyte; details: rhesus monkey
[17] = Drug metabolism in rat hepatocytes assessed as O-deethylation mediated pyridin-3-ol mediated metabolite formation; assay type: ADME, cell-based, Hepatocyte
[18] = Half life in cynomolgus monkey at 1 mg/kg, iv; assay type: ADME, organism-based, Macaca fascicularis; details: in vivo
[19] = Plasma protein binding in cynomolgus monkey assessed as unbound fraction ratio at 2 uM; assay type: ADME, cell-free, Macaca fascicularis
[20] = target: T2, Diacylglycerol O-acyltransferase 1 (Homo sapiens, UniProt O75907); assay: Inhibition of human DGAT1 using [1-14C]decanoyl-CoA and 1,2-didecanoyl-sn-glycerol as substrates assessed as incorporation of [1-14C]decanoyl […] preincubated for 30 mins followed by substrate addition and measured after 30 to 90 mins by scintillation counting method
T2 sequence (O75907 whole entry): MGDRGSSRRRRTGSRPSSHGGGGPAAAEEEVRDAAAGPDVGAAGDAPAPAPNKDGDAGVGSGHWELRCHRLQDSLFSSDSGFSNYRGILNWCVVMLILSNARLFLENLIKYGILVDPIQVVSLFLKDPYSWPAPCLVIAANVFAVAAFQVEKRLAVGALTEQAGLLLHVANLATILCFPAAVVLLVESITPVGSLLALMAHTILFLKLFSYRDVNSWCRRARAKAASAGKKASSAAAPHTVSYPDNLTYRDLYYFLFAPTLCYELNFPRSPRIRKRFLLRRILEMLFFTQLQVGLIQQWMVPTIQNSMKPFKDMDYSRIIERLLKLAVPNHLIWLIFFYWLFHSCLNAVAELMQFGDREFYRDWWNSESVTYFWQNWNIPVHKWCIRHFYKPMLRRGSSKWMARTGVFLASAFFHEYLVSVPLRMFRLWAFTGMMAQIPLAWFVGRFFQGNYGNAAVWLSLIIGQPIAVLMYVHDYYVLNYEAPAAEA

[21] = Drug metabolism in rat hepatocytes assessed as hydrolytic cleavage of amide bond mediated metabolite formation; assay type: ADME, cell-based, Hepatocyte
[22] = Oral bioavailability in cynomolgus monkey at 5 mg/kg; assay type: ADME, organism-based, Macaca fascicularis; details: in vivo

Sequence of Cytochrome P450 2D6 (P10635 whole entry): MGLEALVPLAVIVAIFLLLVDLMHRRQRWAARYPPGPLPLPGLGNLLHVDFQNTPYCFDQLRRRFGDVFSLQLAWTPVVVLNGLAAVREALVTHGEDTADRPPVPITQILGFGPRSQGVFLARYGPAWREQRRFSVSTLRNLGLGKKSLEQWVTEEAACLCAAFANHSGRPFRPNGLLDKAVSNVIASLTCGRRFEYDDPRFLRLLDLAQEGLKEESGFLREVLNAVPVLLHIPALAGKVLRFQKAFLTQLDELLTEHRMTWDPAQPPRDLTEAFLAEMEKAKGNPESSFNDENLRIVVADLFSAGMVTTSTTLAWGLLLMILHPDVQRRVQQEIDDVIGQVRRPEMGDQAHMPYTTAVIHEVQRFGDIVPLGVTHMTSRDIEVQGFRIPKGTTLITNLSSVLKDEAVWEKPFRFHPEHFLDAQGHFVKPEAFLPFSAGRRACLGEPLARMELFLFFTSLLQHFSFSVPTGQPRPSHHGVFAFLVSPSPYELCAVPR

**Q.** With `CCOc1cccnc1Oc1cncc(-c2ncc(C(=O)N[C@H]3CCOC3)cn2)c1` [PF-06865571] as the compound, how does the Activity [1] read?
**A.** The Activity was 49%.

**Q.** And the half-life [2]?
**A.** Its half-life is 4 h.

**Q.** And the Activity [3]?
**A.** The Activity was 70%.

**Q.** And the IC50 [4]?
**A.** Its IC50 is 0.00213 µM.

**Q.** What about the Drug metabolism [5] of the same compound?
**A.** Its Drug metabolism is “Metabolite_Detected”.

**Q.** What about the clearance [6] of the same compound?
**A.** Its clearance is 10 mL/min/kg.

**Q.** What about the Drug metabolism [7] of the same compound?
**A.** The Drug metabolism was “Metabolite_Detected”.

**Q.** What about the IC50 (Cytochrome P450 2C8) of the same compound?
**A.** Its IC50 is greater than 100 µM.

**Q.** And the inhibition (Rattus norvegicus)?
**A.** The inhibition was “Dde”.

**Q.** What about the Papp [8] of the same compound?
**A.** Its Papp is 19 ×10⁻⁶ cm/s.

**Q.** What about the Drug metabolism [9] of the same compound?
**A.** The Drug metabolism was “Metabolite_Detected”.

**Q.** What about the half-life [10] of the same compound?
**A.** Its half-life is 1 h.

**Q.** What about the hepatocyte CLint at 1 µM [11] of the same compound?
**A.** The hepatocyte CLint at 1 µM was less than 4 µL/min/1e6 cells.

**Q.** And the Activity [12]?
**A.** Its Activity is “Non-Toxic”.

**Q.** And the Drug metabolism [13]?
**A.** The Drug metabolism was “Metabolite_Detected”.

**Q.** What about the bioavailability [14] of the same compound?
**A.** The bioavailability was 31%.

**Q.** And the IC50 (Cytochrome P450 2D6)?
**A.** Its IC50 is greater than 100 µM.

**Q.** And the half-life [15]?
**A.** The half-life was 5 h.

**Q.** And the Drug metabolism [16]?
**A.** Its Drug metabolism is “Metabolite_Detected”.

**Q.** And the Drug metabolism [17]?
**A.** The Drug metabolism was “Metabolite_Detected”.

**Q.** What about the half-life [18] of the same compound?
**A.** The half-life was 1 h.

**Q.** And the Ratio [19]?
**A.** The Ratio was 0.36.

**Q.** What about the IC50 [20] of the same compound?
**A.** Its IC50 is greater than 50 µM.

**Q.** And the Drug metabolism [21]?
**A.** The Drug metabolism was “Metabolite_Detected”.

**Q.** And the bioavailability [22]?
**A.** Its bioavailability is 48%.
